From the NIST ThermoML archive (doi:10.1016/j.fluid.2007.07.016)
± gives the expanded uncertainty stated by the source.

Assay: xn = mol fraction of the nth substance listed
Conditions: 101 kPa, Liquid; for viscosity: Capillary tube (Ostwald / Ubbelohde) method; for speed of sound: Linear variable-path acoustic interferometer

Cc1ccc(C)cc1 [1,4-dimethylbenzene] + C1CCOC1
Conditions	speed of sound, 288.15 K [m/s]	speed of sound, 298.15 K [m/s]	speed of sound, 308.15 K [m/s]	speed of sound, 318.15 K [m/s]	viscosity, 288.15 K [mPa·s]	viscosity, 298.15 K [mPa·s]	viscosity, 308.15 K [mPa·s]	viscosity, 318.15 K [mPa·s]
x2 = 0	1357.5 ± 1.6	1316.4 ± 1.6	1268 ± 1.6	1230.3 ± 1.5	0.7084 ± 0.0051	0.611 ± 0.0045	0.5501 ± 0.004	0.4912 ± 0.0037
x2 = 0.084	1356 ± 1.6	1314.1 ± 1.6	1265.7 ± 1.6	1227.2 ± 1.5	0.6971 ± 0.005	0.6047 ± 0.0044	0.5453 ± 0.004	0.4891 ± 0.0037
x2 = 0.1716	1354.2 ± 1.6	1311.7 ± 1.6	1263.2 ± 1.6	1224 ± 1.5	0.6842 ± 0.0049	0.5954 ± 0.0044	0.5385 ± 0.0039	0.4849 ± 0.0036
x2 = 0.2322	1353.1 ± 1.6	1310.1 ± 1.6	1261.6 ± 1.6	1221.9 ± 1.5	0.6755 ± 0.0049	0.5895 ± 0.0043	0.5339 ± 0.0039	0.4819 ± 0.0036
x2 = 0.2934	1351.7 ± 1.6	1308.3 ± 1.6	1259.9 ± 1.6	1219.6 ± 1.5	0.6656 ± 0.0048	0.5825 ± 0.0043	0.528 ± 0.0039	0.4777 ± 0.0036
x2 = 0.3548	1350.2 ± 1.6	1306.5 ± 1.6	1258.1 ± 1.6	1217.3 ± 1.5	0.6552 ± 0.0047	0.5748 ± 0.0042	0.5214 ± 0.0038	0.4727 ± 0.0036
x2 = 0.4284	1348.1 ± 1.6	1304 ± 1.6	1255.7 ± 1.6	1214.5 ± 1.5	0.642 ± 0.0046	0.5648 ± 0.0042	0.5127 ± 0.0038	0.4658 ± 0.0035
x2 = 0.4896	1346.2 ± 1.6	1301.8 ± 1.6	1253.7 ± 1.6	1212 ± 1.5	0.6304 ± 0.0046	0.5558 ± 0.0041	0.5047 ± 0.0037	0.4592 ± 0.0035
x2 = 0.5518	1344.1 ± 1.6	1299.4 ± 1.6	1251.5 ± 1.6	1209.3 ± 1.5	0.6181 ± 0.0045	0.5461 ± 0.004	0.4959 ± 0.0037	0.4518 ± 0.0035
x2 = 0.6201	1341.5 ± 1.6	1296.6 ± 1.6	1248.8 ± 1.6	1206.2 ± 1.5	0.6039 ± 0.0044	0.5347 ± 0.004	0.4854 ± 0.0036	0.4428 ± 0.0034
x2 = 0.6825	1338.9 ± 1.6	1293.7 ± 1.6	1246.2 ± 1.6	1203.3 ± 1.5	0.5904 ± 0.0043	0.5237 ± 0.0039	0.4751 ± 0.0036	0.4337 ± 0.0034
x2 = 0.7414	1336.3 ± 1.6	1290.9 ± 1.6	1243.6 ± 1.6	1200.4 ± 1.5	0.5767 ± 0.0042	0.5127 ± 0.0038	0.4647 ± 0.0035	0.4245 ± 0.0033
x2 = 0.8102	1333.1 ± 1.6	1287.6 ± 1.6	1240.6 ± 1.6	1197 ± 1.5	0.5609 ± 0.0041	0.4991 ± 0.0038	0.4518 ± 0.0035	0.4128 ± 0.0033
x2 = 0.8756	1329.8 ± 1.6	1284.3 ± 1.6	1237.5 ± 1.6	1193.7 ± 1.5	0.545 ± 0.004	0.4855 ± 0.0037	0.4388 ± 0.0034	0.4009 ± 0.0032
x2 = 0.9409	1326.4 ± 1.6	1280.8 ± 1.6	1234.4 ± 1.6	1190.4 ± 1.5	0.5284 ± 0.0039	0.4713 ± 0.0036	0.425 ± 0.0034	0.3881 ± 0.0032
